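Method: 48-hour compound exposure of cells in 96-well plates, five concentrations, linear interpolation of endpoints. Here, GI50 denotes the concentration required for 50% inhibition of growth.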 Calls of active or inactive are those of the source. Cut-off read from the data, not from the text of the source: active = GI50 up to about 1.1 µM and inactive = higher.
Tests used:
Assay in all cases: inhibition of tumour cell growth, NCI panel, 48 h
786-0 = system: 786-0
A498 = system: A498
A549 = system: A549
ACHN = system: ACHN
BT-549 = system: BT-549
CAKI-1 = system: CAKI-1
CCRF-CEM = system: CCRF-CEM
COLO 205 = system: COLO 205
DU-145 = system: DU-145
EKVX = system: EKVX
HCC 2998 = system: HCC 2998
HCT-116 = system: HCT-116
HCT-15 = system: HCT-15
HOP-62 = system: HOP-62
HOP-92 = system: HOP-92
HT-29 = system: HT-29
Hs-578T = system: Hs-578T
IGROV-1 = system: IGROV-1
K562 = system: K562
KM12 = system: KM12
LOX IMVI = system: LOX IMVI
M14 = system: M14
MCF7 = system: MCF7
MDA-MB-231 = system: MDA-MB-231
MDA-MB-435 = system: MDA-MB-435
MDA-N = system: MDA-N
MOLT-4 = system: MOLT-4
Malme-3M = system: Malme-3M
NCI-H226 = system: NCI-H226
NCI-H23 = system: NCI-H23
NCI-H460 = system: NCI-H460
NCI-H522 = system: NCI-H522
NCI/ADR-RES = system: NCI/ADR-RES
OVCAR-3 = system: OVCAR-3
OVCAR-4 = system: OVCAR-4
OVCAR-5 = system: OVCAR-5
OVCAR-8 = system: OVCAR-8
PC-3 = system: PC-3
RXF 393 = system: RXF 393
SF-268 = system: SF-268
SF-295 = system: SF-295
SF-539 = system: SF-539
SK-MEL-28 = system: SK-MEL-28
SK-MEL-2 = system: SK-MEL-2
SK-MEL-5 = system: SK-MEL-5
SK-OV-3 = system: SK-OV-3
SN12C = system: SN12C
SNB-19 = system: SNB-19
SNB-75 = system: SNB-75
SR = system: SR
SW-620 = system: SW-620
T47D = system: T47D
TK-10 = system: TK-10
U-251 = system: U-251
UACC-257 = system: UACC-257
UACC-62 = system: UACC-62
UO-31 = system: UO-31
RPMI-8226 = system: RPMI-8226

## CC(C)C(C/C=C1\CC(CO)(COC(=O)C(C)(C)C)OC1=O)C(C)C (centres undefined)
786-0
  GI50: 2.65 µM (inactive)
A498
  GI50: 14.1 µM (inactive)
A549
  GI50: 4.42 µM (inactive)
ACHN
  GI50: 11 µM (inactive)
BT-549
  GI50: 11.5 µM (inactive)
CAKI-1
  GI50: 8.73 µM (inactive)
CCRF-CEM
  GI50: 10.6 µM (inactive)
COLO 205
  GI50: 1.64 µM (inactive)
DU-145
  GI50: 4.65 µM (inactive)
EKVX
  GI50: 11.1 µM (inactive)
HCC 2998
  GI50: 7.03 µM (inactive)
HCT-116
  GI50: 10.5 µM (inactive)
HCT-15
  GI50: 13.4 µM
HOP-62
  GI50: 3.11 µM (inactive)
HOP-92
  GI50: 10.3 µM (inactive)
HT-29
  GI50: 19.3 µM (inactive)
Hs-578T
  GI50: 2.5 µM (inactive)
IGROV-1
  GI50: 14.3 µM (inactive)
K562
  GI50: 0.942 µM (active)
KM12
  GI50: 12.7 µM (inactive)
LOX IMVI
  GI50: 2.88 µM (inactive)
M14
  GI50: 13.9 µM (inactive)
MCF7
  GI50: 20.7 µM (inactive)
MDA-MB-231
  GI50: 5.24 µM (inactive)
MDA-MB-435
  GI50: 11.9 µM (inactive)
MDA-N
  GI50: 4.97 µM (inactive)
MOLT-4
  GI50: 0.581 µM (active)
Malme-3M
  GI50: 10.7 µM (inactive)
NCI-H226
  GI50: 5.12 µM (inactive)
NCI-H23
  GI50: 4.9 µM (inactive)
NCI-H460
  GI50: 5.57 µM (inactive)
NCI-H522
  GI50: 14.1 µM (inactive)
NCI/ADR-RES
  GI50: 13.6 µM (inactive)
OVCAR-3
  GI50: 12.6 µM (inactive)
OVCAR-4
  GI50: 16.3 µM (inactive)
OVCAR-5
  GI50: 10.5 µM (inactive)
OVCAR-8
  GI50: 14.8 µM (inactive)
PC-3
  GI50: 5.05 µM (inactive)
RXF 393
  GI50: 15.6 µM (inactive)
SF-268
  GI50: 13.2 µM (inactive)
SF-295
  GI50: 4.06 µM (inactive)
SF-539
  GI50: 7.93 µM (inactive)
SK-MEL-28
  GI50: 13.2 µM (inactive)
SK-MEL-2
  GI50: 20.6 µM (inactive)
SK-MEL-5
  GI50: 3.72 µM (inactive)
SK-OV-3
  GI50: 15.1 µM (inactive)
SN12C
  GI50: 5.69 µM (inactive)
SNB-19
  GI50: 13 µM (inactive)
SNB-75
  GI50: 1.84 µM (inactive)
SR
  GI50: 11.5 µM (inactive)
SW-620
  GI50: 4.48 µM (inactive)
T47D
  GI50: 15.1 µM (inactive)
TK-10
  GI50: 7.23 µM (inactive)
U-251
  GI50: 10.7 µM (inactive)
UACC-257
  GI50: 16 µM (inactive)
UACC-62
  GI50: 15.2 µM (inactive)
UO-31
  GI50: 5.09 µM (inactive)

## CN(C)Cc1cc(C(C)(C)C)cc(CN(C)C)c1O
786-0
  GI50: 60.1 µM (inactive)
A498
  GI50: > 100 µM (inactive)
A549
  GI50: 76.6 µM (inactive)
ACHN
  GI50: 65.3 µM (inactive)
BT-549
  GI50: > 100 µM (inactive)
CAKI-1
  GI50: > 100 µM (inactive)
CCRF-CEM
  GI50: 21.4 µM (inactive)
COLO 205
  GI50: 35.8 µM (inactive)
DU-145
  GI50: 83.8 µM (inactive)
EKVX
  GI50: 40.6 µM (inactive)
HCC 2998
  GI50: 17.1 µM (inactive)
HCT-116
  GI50: 35.6 µM (inactive)
HCT-15
  GI50: 30.4 µM
HOP-62
  GI50: 68.5 µM (inactive)
HOP-92
  GI50: > 100 µM (inactive)
HT-29
  GI50: 35.8 µM (inactive)
Hs-578T
  GI50: > 100 µM (inactive)
IGROV-1
  GI50: > 100 µM (inactive)
K562
  GI50: > 100 µM (inactive)
KM12
  GI50: 70.8 µM (inactive)
LOX IMVI
  GI50: 95.9 µM (inactive)
M14
  GI50: > 100 µM (inactive)
MCF7
  GI50: 96.2 µM (inactive)
MDA-MB-231
  GI50: 92.5 µM (inactive)
MDA-MB-435
  GI50: > 100 µM (inactive)
MDA-N
  GI50: > 100 µM (inactive)
MOLT-4
  GI50: 49.2 µM (inactive)
Malme-3M
  GI50: > 100 µM (inactive)
NCI-H23
  GI50: > 100 µM (inactive)
NCI-H460
  GI50: 36.4 µM (inactive)
NCI-H522
  GI50: 43.5 µM (inactive)
NCI/ADR-RES
  GI50: 34.2 µM (inactive)
OVCAR-3
  GI50: 28.8 µM (inactive)
OVCAR-4
  GI50: > 100 µM (inactive)
OVCAR-5
  GI50: 57.3 µM (inactive)
OVCAR-8
  GI50: 98.4 µM (inactive)
PC-3
  GI50: 77.8 µM (inactive)
RPMI-8226
  GI50: > 100 µM (inactive)
RXF 393
  GI50: > 100 µM (inactive)
SF-268
  GI50: 79.3 µM (inactive)
SF-295
  GI50: 44.6 µM (inactive)
SF-539
  GI50: 86.7 µM (inactive)
SK-MEL-28
  GI50: > 100 µM (inactive)
SK-MEL-2
  GI50: > 100 µM (inactive)
SK-MEL-5
  GI50: > 100 µM (inactive)
SK-OV-3
  GI50: > 100 µM (inactive)
SN12C
  GI50: 73.3 µM (inactive)
SNB-19
  GI50: > 100 µM (inactive)
SNB-75
  GI50: > 100 µM (inactive)
SR
  GI50: 54.8 µM (inactive)
SW-620
  GI50: 66.1 µM (inactive)
T47D
  GI50: > 100 µM (inactive)
TK-10
  GI50: 67.3 µM (inactive)
U-251
  GI50: 98.6 µM (inactive)
UACC-257
  GI50: > 100 µM (inactive)
UACC-62
  GI50: > 100 µM (inactive)
UO-31
  GI50: 21.3 µM (inactive)

— ChEMBL document CHEMBL1201862, “PubChem BioAssay data set” (2004)
